Columns and labels:
[1] = biological target: T1, Cysteinyl leukotriene receptor 1 (Homo sapiens, UniProt Q9Y271); assay type: cell membranes, CHO-K1, Membrane; settings: cho-k1; further: in other assays of this panel Not Active means under 50% inhibition at 10 µM
T1 sequence (Q9Y271 whole entry): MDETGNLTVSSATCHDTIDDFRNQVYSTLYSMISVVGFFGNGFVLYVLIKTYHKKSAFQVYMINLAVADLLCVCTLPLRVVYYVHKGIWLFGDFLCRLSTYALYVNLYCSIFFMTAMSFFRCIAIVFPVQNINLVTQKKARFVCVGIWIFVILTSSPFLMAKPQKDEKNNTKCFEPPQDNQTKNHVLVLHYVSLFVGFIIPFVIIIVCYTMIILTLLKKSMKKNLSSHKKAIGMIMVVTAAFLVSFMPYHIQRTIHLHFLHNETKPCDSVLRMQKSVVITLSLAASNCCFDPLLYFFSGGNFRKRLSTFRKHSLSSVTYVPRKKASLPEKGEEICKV

[2] = DRUGMATRIX: beta-Lactamase enzyme inhibition (substrate: Nitrocefin); set-up: species or system Bacillus cereus; settings: Not Active = under 50% inhibition at 10 µM
[3] = biological target: Insulin receptor (Rattus norvegicus, UniProt P15127); assay type: cell membranes, Wistar, Liver, Membrane; further: in other assays of this panel Not Active means under 50% inhibition at 10 µM
[4] = biological target: T2, Nitric oxide synthase, inducible (Mus musculus, UniProt P29477); set-up: species or system Escherichia coli;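 further: inhibition of iNOS enzyme activity measured with L-arginine as substrate; in other assays of this panel Not Active means under 50% inhibition at 10 µM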
T2 sequence (P29477 whole entry): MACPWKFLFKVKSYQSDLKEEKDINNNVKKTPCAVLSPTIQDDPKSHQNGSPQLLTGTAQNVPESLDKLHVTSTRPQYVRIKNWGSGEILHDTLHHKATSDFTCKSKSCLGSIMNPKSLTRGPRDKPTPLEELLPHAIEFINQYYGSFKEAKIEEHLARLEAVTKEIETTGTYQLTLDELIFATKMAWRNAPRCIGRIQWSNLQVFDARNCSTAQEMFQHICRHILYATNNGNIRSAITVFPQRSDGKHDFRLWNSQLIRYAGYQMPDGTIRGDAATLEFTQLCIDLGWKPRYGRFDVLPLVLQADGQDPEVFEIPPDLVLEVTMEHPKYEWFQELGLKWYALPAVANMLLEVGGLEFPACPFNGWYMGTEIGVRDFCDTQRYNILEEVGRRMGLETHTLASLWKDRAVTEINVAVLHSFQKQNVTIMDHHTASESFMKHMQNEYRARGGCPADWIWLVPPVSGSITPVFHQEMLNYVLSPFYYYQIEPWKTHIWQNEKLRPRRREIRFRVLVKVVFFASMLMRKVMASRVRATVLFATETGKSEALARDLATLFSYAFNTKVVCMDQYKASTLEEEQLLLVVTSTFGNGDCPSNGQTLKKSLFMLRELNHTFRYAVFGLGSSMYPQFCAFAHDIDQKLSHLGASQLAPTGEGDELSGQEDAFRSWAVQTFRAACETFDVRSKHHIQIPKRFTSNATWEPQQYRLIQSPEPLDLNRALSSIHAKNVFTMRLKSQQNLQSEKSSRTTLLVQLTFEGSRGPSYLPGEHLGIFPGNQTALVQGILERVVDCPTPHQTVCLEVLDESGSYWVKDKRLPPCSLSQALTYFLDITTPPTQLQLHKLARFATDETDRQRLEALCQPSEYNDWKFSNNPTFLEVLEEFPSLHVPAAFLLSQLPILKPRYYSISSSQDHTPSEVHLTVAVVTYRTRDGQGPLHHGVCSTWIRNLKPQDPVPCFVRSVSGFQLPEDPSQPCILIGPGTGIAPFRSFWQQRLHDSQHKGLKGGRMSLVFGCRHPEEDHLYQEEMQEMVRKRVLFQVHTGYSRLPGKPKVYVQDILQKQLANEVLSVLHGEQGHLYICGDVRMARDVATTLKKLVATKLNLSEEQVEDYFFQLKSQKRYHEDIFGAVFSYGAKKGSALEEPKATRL

[5] = biological target: T3, C-X-C chemokine receptor type 2 (Homo sapiens, UniProt P25025); assay type: cell membranes, Membrane; settings: cho-k1; further: in other assays of this panel Not Active means under 50% inhibition at 10 µM
T3 sequence (P25025 whole entry): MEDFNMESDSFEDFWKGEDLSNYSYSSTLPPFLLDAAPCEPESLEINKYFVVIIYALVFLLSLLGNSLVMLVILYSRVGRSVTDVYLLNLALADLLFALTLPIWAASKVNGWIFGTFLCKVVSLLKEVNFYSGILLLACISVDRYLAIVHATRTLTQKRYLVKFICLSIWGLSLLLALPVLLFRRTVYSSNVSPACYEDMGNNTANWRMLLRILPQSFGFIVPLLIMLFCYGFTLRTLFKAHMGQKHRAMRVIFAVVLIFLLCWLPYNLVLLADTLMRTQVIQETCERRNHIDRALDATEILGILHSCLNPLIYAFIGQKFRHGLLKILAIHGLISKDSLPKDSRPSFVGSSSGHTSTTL

[6] = biological target: Beta-1 adrenergic receptor (Homo sapiens, UniProt P08588); assay: DRUGMATRIX: Adrenergic beta1 radioligand binding (ligand: [125I] Cyanopindolol); assay type: cell membranes, CHO-K1, Membrane; settings: Not Active = under 50% inhibition at 10 µM
[7] = biological target: Cannabinoid receptor 1 (Homo sapiens, UniProt P21554); assay type: cell membranes, Membrane; settings: chem-1; further: in other assays of this panel Not Active means under 50% inhibition at 10 µM
[8] = biological target: T4, Cholecystokinin receptor type A (Homo sapiens, UniProt P32238); assay type: cell membranes, Membrane; settings: 1321-n1; further: in other assays of this panel Not Active means under 50% inhibition at 10 µM
T4 sequence (P32238 whole entry): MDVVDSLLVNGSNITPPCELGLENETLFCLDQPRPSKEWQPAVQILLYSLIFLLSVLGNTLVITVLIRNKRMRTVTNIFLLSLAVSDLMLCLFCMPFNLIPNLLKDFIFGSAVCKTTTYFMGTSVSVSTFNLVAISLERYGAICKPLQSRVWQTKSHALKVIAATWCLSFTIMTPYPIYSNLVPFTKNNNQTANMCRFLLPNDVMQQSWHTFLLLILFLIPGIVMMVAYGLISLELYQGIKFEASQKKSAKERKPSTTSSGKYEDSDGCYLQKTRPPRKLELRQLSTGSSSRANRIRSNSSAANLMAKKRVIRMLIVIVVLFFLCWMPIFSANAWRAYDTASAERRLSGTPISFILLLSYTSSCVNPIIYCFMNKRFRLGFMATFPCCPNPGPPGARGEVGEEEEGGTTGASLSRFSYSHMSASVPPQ

Sequence of Insulin receptor (P15127 27-759 limits assumed): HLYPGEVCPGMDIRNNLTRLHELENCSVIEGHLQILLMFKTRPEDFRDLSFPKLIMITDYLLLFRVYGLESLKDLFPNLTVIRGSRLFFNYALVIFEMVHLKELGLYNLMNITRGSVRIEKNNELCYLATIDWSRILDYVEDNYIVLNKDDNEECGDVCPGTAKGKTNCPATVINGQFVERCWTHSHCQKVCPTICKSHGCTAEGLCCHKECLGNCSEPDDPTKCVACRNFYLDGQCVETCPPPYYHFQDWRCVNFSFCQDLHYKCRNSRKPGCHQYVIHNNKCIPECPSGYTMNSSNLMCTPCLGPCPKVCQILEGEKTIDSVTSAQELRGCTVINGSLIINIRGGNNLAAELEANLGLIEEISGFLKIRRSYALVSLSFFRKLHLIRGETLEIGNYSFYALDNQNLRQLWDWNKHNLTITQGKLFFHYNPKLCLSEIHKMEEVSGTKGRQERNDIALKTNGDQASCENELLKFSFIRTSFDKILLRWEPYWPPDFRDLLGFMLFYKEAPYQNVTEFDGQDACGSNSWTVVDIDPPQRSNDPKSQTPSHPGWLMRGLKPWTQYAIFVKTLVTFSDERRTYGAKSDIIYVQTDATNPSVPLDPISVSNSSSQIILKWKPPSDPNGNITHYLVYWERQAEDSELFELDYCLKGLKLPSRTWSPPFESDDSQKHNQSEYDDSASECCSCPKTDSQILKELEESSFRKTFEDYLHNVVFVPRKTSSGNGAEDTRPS
Sequence of Insulin receptor (P15127 764-1383 limits assumed): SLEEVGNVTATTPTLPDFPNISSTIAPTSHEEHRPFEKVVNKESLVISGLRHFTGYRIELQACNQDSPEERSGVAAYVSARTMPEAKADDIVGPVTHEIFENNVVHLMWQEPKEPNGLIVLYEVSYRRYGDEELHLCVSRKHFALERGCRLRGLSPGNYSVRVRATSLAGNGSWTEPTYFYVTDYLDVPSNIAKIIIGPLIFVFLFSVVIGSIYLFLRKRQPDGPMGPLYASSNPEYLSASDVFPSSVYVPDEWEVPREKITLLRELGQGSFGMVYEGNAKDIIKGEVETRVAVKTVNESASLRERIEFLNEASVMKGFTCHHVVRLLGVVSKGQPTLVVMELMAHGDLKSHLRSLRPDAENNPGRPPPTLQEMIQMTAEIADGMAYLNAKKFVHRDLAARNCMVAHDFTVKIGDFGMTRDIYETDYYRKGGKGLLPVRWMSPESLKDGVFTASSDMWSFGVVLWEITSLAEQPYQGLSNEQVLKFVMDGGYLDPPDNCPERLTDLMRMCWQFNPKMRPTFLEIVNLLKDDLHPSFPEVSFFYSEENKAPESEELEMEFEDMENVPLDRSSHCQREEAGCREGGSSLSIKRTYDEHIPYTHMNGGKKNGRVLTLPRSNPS
Sequence of Beta-1 adrenergic receptor (P08588 whole entry): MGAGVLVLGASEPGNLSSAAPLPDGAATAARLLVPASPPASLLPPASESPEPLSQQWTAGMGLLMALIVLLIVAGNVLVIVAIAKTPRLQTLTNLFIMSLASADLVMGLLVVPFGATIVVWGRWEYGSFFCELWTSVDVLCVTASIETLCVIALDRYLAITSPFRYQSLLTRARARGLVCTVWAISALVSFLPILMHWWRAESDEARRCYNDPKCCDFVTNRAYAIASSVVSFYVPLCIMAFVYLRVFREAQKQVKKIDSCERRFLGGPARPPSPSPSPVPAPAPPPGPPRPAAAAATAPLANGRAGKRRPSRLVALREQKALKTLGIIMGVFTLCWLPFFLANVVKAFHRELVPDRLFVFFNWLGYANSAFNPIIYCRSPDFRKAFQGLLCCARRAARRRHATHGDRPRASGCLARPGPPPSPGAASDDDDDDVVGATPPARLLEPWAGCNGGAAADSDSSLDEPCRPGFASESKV
Sequence of Cannabinoid receptor 1 (P21554 whole entry): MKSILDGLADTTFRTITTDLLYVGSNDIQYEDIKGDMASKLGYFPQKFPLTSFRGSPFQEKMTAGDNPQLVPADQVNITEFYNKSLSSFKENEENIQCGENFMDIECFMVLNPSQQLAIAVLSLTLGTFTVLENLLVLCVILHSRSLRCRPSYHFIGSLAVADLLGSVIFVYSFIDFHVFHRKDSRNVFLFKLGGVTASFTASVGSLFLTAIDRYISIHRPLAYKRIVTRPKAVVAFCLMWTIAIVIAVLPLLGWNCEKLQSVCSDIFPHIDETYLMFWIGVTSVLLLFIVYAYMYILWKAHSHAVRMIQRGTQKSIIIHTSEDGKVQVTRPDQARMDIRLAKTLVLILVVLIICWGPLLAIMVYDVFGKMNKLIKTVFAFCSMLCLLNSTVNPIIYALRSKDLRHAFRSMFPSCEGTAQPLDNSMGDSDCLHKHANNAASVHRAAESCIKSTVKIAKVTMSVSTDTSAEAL

Structure (SMILES)	IC50 [1]	IC50 [2]	Ki [2]	IC50 [3]	IC50 [4]	IC50 [5]	IC50 ([6]; cho-k1)	IC50 [7]	IC50 [8]	Ki [1]	Ki [3]	Ki [4]	Ki [5]	Ki ([6]; cho-k1)	Ki [7]	Ki [8]	IC50 ([6]; read-out: IC50)	Ki ([6]; read-out: Ki)
CCOC(=O)C1=C(COCCN)NC(C)=C(C(=O)OC)C1c1ccccc1Cl (centres undefined) [AMLODIPINE]	Not Active	Not Active	Not Active	Not Active	Not Active	Not Active	Not Active	Not Active	Not Active									
COc1ccc(C[C@H]2NC[C@H](O)[C@H]2OC(C)=O)cc1 [ANISOMYCIN]	Not Active	Not Active	Not Active	Not Active	Not Active	Not Active	Not Active	Not Active	Not Active	Not Active	Not Active	Not Active	Not Active	Not Active	Not Active	Not Active		
Nc1ncn([C@@H]2O[C@H](CO)[C@@H](O)[C@H]2O)c(=O)n1 [AZACITIDINE]	Not Active	Not Active	Not Active	Not Active	Not Active	Not Active	Not Active	Not Active	Not Active									
CN(C)C(=O)Oc1cc(OC(=O)N(C)C)cc(C(O)CNC(C)(C)C)c1 (centres undefined) [BAMBUTEROL]	Not Active	Not Active	Not Active	Not Active	Not Active	Not Active	Not Active	Not Active	Not Active									
c1ccc2c(c1)c1cccc3ccc4cccc2c4c31 [BENZO[E]PYRENE]	Not Active	Not Active	Not Active	Not Active	Not Active	Not Active	Not Active	Not Active	Not Active									
CC(C)C(Br)C(=O)NC(N)=O (centres undefined) [BROMISOVALUM]	Not Active	Not Active	Not Active	Not Active	Not Active	Not Active	Not Active	Not Active	Not Active									
CCCC1O[C@@H]2C[C@H]3[C@@H]4CCC5=CC(=O)C=C[C@]5(C)[C@H]4[C@@H](O)C[C@]3(C)[C@]2(C(=O)CO)O1 (some centres undefined) [BUDESONIDE]	Not Active	Not Active	Not Active	Not Active	Not Active	Not Active	Not Active	Not Active	Not Active									
CC(NC(C)(C)C)C(=O)c1cccc(Cl)c1 (centres undefined) [BUPROPION]	Not Active	Not Active	Not Active	Not Active	Not Active	Not Active	Not Active	Not Active	Not Active									
CN(Cc1ccc(C(C)(C)C)cc1)Cc1cccc2ccccc12 [BUTENAFINE]	Not Active	Not Active	Not Active	Not Active	Not Active	Not Active	Not Active	Not Active	Not Active									
C[C@H](CS)C(=O)N1CCC[C@H]1C(=O)O [CAPTOPRIL]	Not Active	Not Active	Not Active	Not Active	Not Active	Not Active	Not Active	Not Active	Not Active									
Cc1ccc(-c2cc(C(F)(F)F)nn2-c2ccc(S(N)(=O)=O)cc2)cc1 [CELECOXIB]	Not Active	Not Active	Not Active	Not Active	Not Active	Not Active	Not Active	Not Active	Not Active									
O=C(O)CCCc1ccc(N(CCCl)CCCl)cc1 [CHLORAMBUCIL]	Not Active	Not Active	Not Active	Not Active	Not Active	Not Active	Not Active	Not Active	Not Active									
CN(C)CCCN1c2ccccc2Sc2ccc(Cl)cc21 [CHLORPROMAZINE]	Not Active	Not Active	Not Active	Not Active	Not Active	Not Active	Not Active	Not Active	Not Active									
C[C@H](CCC(=O)O)[C@H]1CC[C@H]2[C@@H]3[C@H](O)C[C@@H]4C[C@H](O)CC[C@]4(C)[C@H]3C[C@H](O)[C@]12C [CHOLIC ACID]	Not Active	Not Active	Not Active	Not Active	Not Active	Not Active	Not Active	Not Active	Not Active									
Cc1cc(C2CCCCC2)n(O)c(=O)c1 [CICLOPIROX]	Not Active	Not Active	Not Active	Not Active	Not Active	Not Active	Not Active	Not Active	Not Active									
CC1=C2C(=CO[C@H](C)[C@H]2C)C(O)=C(C(=O)O)C1=O [CITRININ]	Not Active	Not Active	Not Active	Not Active	Not Active	Not Active	Not Active	Not Active	Not Active									
CC(C)(C)NCC(O)c1cc(Cl)c(N)c(Cl)c1 (centres undefined) [CLENBUTEROL]	Not Active	Not Active	Not Active	Not Active	Not Active	Not Active		Not Active	Not Active								120 nM	69 nM
CC(C)(Oc1ccc(Cl)cc1)C(=O)O [CLOFIBRIC ACID]	Not Active	Not Active	Not Active	Not Active	Not Active	Not Active	Not Active	Not Active	Not Active									
Clc1cccc(Cl)c1NC1=NCCN1 [CLONIDINE]	Not Active	Not Active	Not Active	Not Active	Not Active	Not Active	Not Active	Not Active	Not Active									
